Laboratory results from patent US12459917B2, “Salt of diaminopyrimidine compounds, and solid form thereof, preparation method therefor and use thereof” (BEIJING TIDE PHARMACEUTICAL CO., LTD., priority 2019, dated 2025).
Converted amounts (≈) assume the structure as drawn.

Assay: Solubility test in FaSSIF at 37° C.
Format: physicochemical
Settings: FaSSIF (Fasted State Simulated Intestinal Fluid), thermodynamic from solid
Source text: Experimental Example 3: Solubility Test

C#Cc1cc(Oc2cnc(N)nc2N)c(C(C)C)cn1 [Free base, 5-((2-ethynyl-5-isopropylpyridin-4-yl)oxy)pyrimidine-2,4-diamine]
solubility at 30 min (30 min): 80 µg/mL (≈ 297 µM) | solubility at 2 h (2 h): 80 µg/mL (≈ 297 µM) | solubility at 24 h (24 h): 110 µg/mL (≈ 408 µM)
